The values that follow come from patent publication US12534469B2 (CHILDREN'S HOSPITAL MEDICAL CENTER, priority 2020, dated 2026).

The target in one assay is T1, FLT3 ITD (Homo sapiens, UniProt P36888, ITD).
T1 sequence (P36888 564-993): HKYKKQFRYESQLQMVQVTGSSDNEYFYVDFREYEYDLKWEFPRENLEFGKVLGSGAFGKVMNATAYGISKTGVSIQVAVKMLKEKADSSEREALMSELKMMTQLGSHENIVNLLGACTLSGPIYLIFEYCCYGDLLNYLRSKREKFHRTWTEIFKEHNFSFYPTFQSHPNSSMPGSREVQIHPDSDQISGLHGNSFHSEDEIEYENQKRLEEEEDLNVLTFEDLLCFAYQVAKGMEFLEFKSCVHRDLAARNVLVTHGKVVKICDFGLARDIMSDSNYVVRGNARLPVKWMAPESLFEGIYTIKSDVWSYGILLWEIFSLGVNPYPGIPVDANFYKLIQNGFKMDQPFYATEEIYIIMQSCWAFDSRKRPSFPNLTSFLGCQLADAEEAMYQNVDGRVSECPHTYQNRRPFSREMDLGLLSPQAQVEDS
The assay can be described thus: DiscoverX KINOMEscan competition binding assay, FLT3 ITD. The text has this:
(§1) Kinase binding data were obtained for various exemplary compounds prepared according to Examples 1-25 using the DiscoverX KINOMEscan® active site-directed competition binding site-directed assay protocol described below. […] As a result, the data report thermodynamic interaction affinities (Kd values), rather than IC50 values that are dependent on ATP concentrations. The assay uses a DNA-tagged version of the protein kinase, and an immobilized ligand bound to a solid support. Compounds that directly or indirectly prevent kinase binding to the immobilized ligand reduce the amount of kinase captured on the solid support, which is detected using an ultra-sensitive qPCR method. Affinity constants reported from the assay have been reported to be independent of the immobilized ligand used that is coupled to the solid support (See supplemental information in Fabian, M. A. et. al., (2005) Nat. Biotechnol. 23, 329-336; Wodicka, L. M. et. al., (2010) Chem. Biol. 17, 1241-1249.)
(§2) Kinase-tagged T7 phage strains were prepared in an E. coli host derived from the BL21 strain. E. coli were grown to log-phase and infected with T7 phage and incubated with shaking at 32° C. until lysis. The lysates were centrifuged and filtered to remove cell debris. The remaining kinases were produced in HEK-293 cells and subsequently tagged with DNA for qPCR detection. […] The liganded beads were blocked with excess biotin and washed with blocking buffer (SeaBlock (Pierce), 1% BSA, 0.05% Tween 20, 1 mM DTT) to remove unbound ligand and to reduce non-specific binding. […] Test compounds were prepared as 111× stocks in 100% DMSO. Kds were determined using an 11-point 3-fold compound dilution series with three DMSO control points. […] The compounds were then diluted directly into the assays such that the final concentration of DMSO was 0.9%. All reactions were performed in polypropylene 384-well plates. Each was a final volume of 0.02 mL. […] The kinase concentration in the eluates was measured by qPCR.
(§3) Binding constants (Kds) were calculated with a standard dose-response curve using the Hill equation. […]

In a further assay the target is T2, FLT3 (Homo sapiens, UniProt P36888).
T2 construct: using full-length kinases in the presence of cellular concentrations of ATP in live, uncompromised cells; assay by Reaction Biology; host or cells: HEK-293 (ATCC), transient transfection
T2 sequence (P36888 27-993): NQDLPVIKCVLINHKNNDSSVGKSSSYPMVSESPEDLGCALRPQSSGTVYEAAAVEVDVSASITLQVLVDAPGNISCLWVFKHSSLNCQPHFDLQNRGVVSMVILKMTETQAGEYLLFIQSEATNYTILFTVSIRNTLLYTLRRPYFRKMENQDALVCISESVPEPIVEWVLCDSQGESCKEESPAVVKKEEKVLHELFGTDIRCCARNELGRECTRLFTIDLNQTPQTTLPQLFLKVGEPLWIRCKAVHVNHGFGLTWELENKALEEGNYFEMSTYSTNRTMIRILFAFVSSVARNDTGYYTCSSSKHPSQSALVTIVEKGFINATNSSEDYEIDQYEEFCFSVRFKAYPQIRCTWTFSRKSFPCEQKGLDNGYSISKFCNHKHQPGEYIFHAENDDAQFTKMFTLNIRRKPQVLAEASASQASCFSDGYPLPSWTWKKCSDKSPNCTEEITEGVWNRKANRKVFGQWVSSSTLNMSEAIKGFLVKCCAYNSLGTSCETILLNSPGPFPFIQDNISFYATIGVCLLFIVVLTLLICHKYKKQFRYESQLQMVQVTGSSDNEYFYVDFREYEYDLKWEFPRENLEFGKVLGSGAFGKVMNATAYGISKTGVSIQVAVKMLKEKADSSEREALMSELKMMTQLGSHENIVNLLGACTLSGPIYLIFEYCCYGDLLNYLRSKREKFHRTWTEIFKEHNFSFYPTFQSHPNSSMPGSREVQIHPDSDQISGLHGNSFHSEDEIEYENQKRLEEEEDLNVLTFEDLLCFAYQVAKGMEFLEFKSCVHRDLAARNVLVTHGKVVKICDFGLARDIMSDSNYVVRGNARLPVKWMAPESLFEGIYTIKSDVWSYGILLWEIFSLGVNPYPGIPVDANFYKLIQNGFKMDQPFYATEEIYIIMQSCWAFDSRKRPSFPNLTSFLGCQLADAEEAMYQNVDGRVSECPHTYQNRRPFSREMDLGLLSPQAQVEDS
Nature of the assay: DiscoverX KINOMEscan competition binding assay, FLT3.
Description: as §1, §2, §3

As a reminder, the Kd is a measure of binding affinity in units of concentration.

Like-named read-outs stand apart in the source and are kept apart here.

In the case of `COc1cc2ncc(-c3cccc(N[C@@H]4CCNC4)n3)n2nc1C1CC1` [Compound 97, (R)-6-(6-cyclopropyl-7-methoxyimidazo[1,2-b]pyridazin-3-yl)-N-(pyrrolidin-3-yl)pyridin-2-amine], the Kd at FLT3 ITD (read-out: FLT3 ITD Kd) and at FLT3 was 0.19 nM in each case.
On to `COc1cc2ncc(-c3cccc(N[C@H]4CNCC[C@@H]4F)n3)n2nc1C1CC1` [Compound 102, 6-(6-cyclopropyl-7-methoxyimidazo[1,2-b]pyridazin-3-yl)-N-((3S,4S)-4-fluoropiperidin-3-yl)pyridin-2-amine], for which the Kd at FLT3 ITD (read-out: FLT3 ITD Kd) stood at 0.54 nM; on FLT3, 0.13 nM.
For the molecule `COc1cc2ncc(-c3cccc(N[C@H]4CNC[C@@H]4F)n3)n2nc1C1CC1` [Compound 96, 6-(6-cyclopropyl-7-methoxyimidazo[1,2-b]pyridazin-3-yl)-N-((3S,4S)-4-fluoropyrrolidin-3-yl)pyridin-2-amine], the equilibrium dissociation constant (Kd) at FLT3 ITD was determined as 1 nM; at FLT3, 0.31 nM.
